Like-named read-outs stand apart in the source and are kept apart here.
Assays:
[1] = oral administration, cited from earlier work
[2] = format: in vitro ADME; details: pig
Text: Quantitative determination of N-Acetyl-L-cysteine in the receptor solution samples from the skin permeation studies in Example 2 and from the membrane permeation studies in Example 3, and quantitative determination of N-Acetyl-L-cysteine in the samples from the stability studies in Example 6, was done by the HPLC method described under Apparatus.
In vitro permeation of N-Acetyl-L-cysteine from the solutions 1, 2, 3 and 4 through dermatomed pig skin was investigated in Franz diffusion Cells.
Skin pieces with a thickness of approximately 765 μm were dermatomed from full thickness pig skin and mounted in glass diffusion cells with an available diffusion area of 1.8 cm^2. Pig skin is a fully accepted model for human skin. The solutions 1, 2, 3 and 4 were applied separately on the skin surfaces and the dermal sides were all exposed to 12.1 ml receptor solution consisting of 0.0001M hydrochloric acid equilibrated to 37±1° C.
Permeation of N-Acetyl-L-cysteine was followed by removing samples periodically and measuring the concentration by the HPLC method according to Example 1. An increase in the permeated amount of N-Acetyl-L-cysteine is seen in the following order: Propylene glycol, water, ethanol and propylene glycol containing 5% azone added used as solvents. […]

estimated fluxes of N-Acetyl-L-cysteine through skin [2]: 4-48 μg/cm^2/h
amount permeated through skin after 20 hours ([2]; 20 h): about 3000 μg/cm^2
SMILES: CC(=O)N[C@@H](CS)C(=O)O [N-Acetyl-L-cysteine]
bioavailability when administered perorally [1]: 4%
bioavailability when administered perorally ([1]; listed as N-Acetyl-cysteine): 4-10%

Source: patent publication US6620428B1, “Transdermally administered acetylcysteine as mucolytic agent” (Pharmacia AB, priority 1996, dated 2003)
